From US20140127144A1, “Flavour Modifying Compounds” (Givaudan S. A., priority 2011, published 2014)

Legend:
[1] = Expert panel tasting, application on soy sauce; type: in vivo, people; details: for taste description of mixture B compared to mixture A, effect assigned to the compound: 150-300 ppm N-acetyl-DL-glutamic acid plus 50-200 ppm N-formyl-glycine together in 5% soy sauce, panel of 5
Excerpt: Mixture A: 5% of a standard soy sauce in water, Mixture B: Same as mixture A plus 150-300 ppm N-acetyl-DL-glutamic acid plus 50-200 ppm N-formyl-glycine. […] This effect could be assigned to N-acetyl glutamic acid.

[2] = Expert panel tasting, application on Bechamel sauce with cheese; type: in vivo, people; details: for taste description of mixture B compared to mixture A, effect assigned to the compound: 150-300 ppm N-acetyl-DL-glutamic acid plus 50-200 ppm N-formyl-glycine together in Bechamel sauce with cheese, panel of 5
Method: Mixture A: A Bechamel sauce with cheese was prepared by heating up 25 g of wheat flour in 35 g of butter in a saucepan. Let the flour cook shortly. Add 500 g milk, 2.5 g table salt, 0.15 g MSG, 0.075 g nutmeg powder, 0.125 g black pepper and 40 g of cheese powder. Boil the mixture for one minute. Mixture B: The same as mixture A plus 150-300 ppm N-acetyl-DL-glutamic acid plus 50-200 ppm N-formyl-glycine.

[3] = Panel of experienced tasters, hamburgers; type: in vivo, people; details: 150 ppm in hamburgers, baked; panel of 8
Method: Hamburgers were prepared from 80% lean beef and 20% fat beef meat containing 0.5% salt, 0.15% black pepper and 0.15% onion powder and 150 ppm of N-acetyl glutamic acid. The hamburgers were baked without additional fat and compared with the same batch of meat to which no N-acetyl glutamic acid was added. This product was tasted and compared with the original hamburgers by a panel of experienced tasters consisting of 8 people (5 men, 3 women aged 35-54).

[4] = Panel of experienced tasters, cooking oil; type: in vivo, people; details: 200 ppm in cooking oil; panel of 8
Method: 200 ppm of N-acetyl glutamic acid was dissolved in a common cooking oil (Becel kitchen). This product was tasted and compared with the original cooking oil by a panel of experienced tasters consisting of 8 people (5 men, 3 women aged 35-54).

[5] = Panel of experienced tasters, instant mashed potato; type: in vivo, people; details: 150 ppm in mashed potato; panel of 8
Method: A standard instant mashed potato powder (Albert Heijn huismerk) was prepared and mixed with 150 ppm of N-acetyl glutamic acid. This product was tasted and compared with the original mashed potatoes by a panel of experienced tasters consisting of 8 people (5 men, 3 women aged 35-54).

[6] = Panel of experienced tasters, potato chips with cheese sour cream flavour; type: in vivo, people; details: amount not given, panel of 8
Method: Potato chips were prepared in house. A cheese sour cream flavour was prepared by mixing salt (1.5 weight % on the chips), MSG (0.05), whey powder (2.5), cheese powder (1.5), cream powder (0.2), buttermilk powder (0.4) and onion powder (0.2) The powder was applied on plain potato chips. This product was tasted and compared with the chips without N—Ac—Glu by a panel of experienced tasters consisting of 8 people (5 men, 3 women aged 35-54).

[7] = Panel of experienced tasters, salad dressing; type: in vivo, people; details: 100 ppm in salad dressing; panel of 8
Method: 100 ppm of N-acetyl glutamic acid was dissolved in a common salad dressing (Remia met magere yoghurt). This product was tasted and compared with the original salad dressing by a panel of experienced tasters consisting of 8 people (5 men, 3 women aged 35-54).

[8] = Panel of experienced tasters, soy milk; type: in vivo, people; details: 100 ppm in soy milk; panel of 8
Method: To a standard soy milk (Alpro) was added 100 ppm of N-acetyl glutamic acid. This product was tasted and compared with the original soy milk by a panel of experienced tasters consisting of 8 people (5 men, 3 women aged 35-54).

[9] = Panel of experienced tasters, vanilla yoghurt; type: in vivo, people; details: 100 ppm in vanilla yoghurt; panel of 8
Method: To a standard vanilla yoghurt (Campina) was added 100 ppm of N-acetyl glutamic acid. This product was tasted and compared with the original vanilla yoghurt by a panel of experienced tasters consisting of 8 people (5 men, 3 women aged 35-54).

[10] = Panel of experienced tasters, coffee beverage; type: in vivo, people; details: 150 ppm in coffee beverage; panel of 8
Method: To a coffee beverage (Starbuck's frappucino) was added 150 ppm of N-acetyl glutamic acid. This product was tasted and compared with the original coffee beverage by a panel of experienced tasters consisting of 8 people (5 men, 3 women aged 35-54).

[11] = Panel of experienced tasters, tomato soup; type: in vivo, people; details: 100 ppm in tomato soup; panel of 8
Method: To a standard tomato soup (Albert Heijn huismerk) was added 100 ppm of N-acetyl glutamic acid. This product was tasted and compared with the original tomato soup by a panel of experienced tasters consisting of 8 people (5 men, 3 women aged 35-54).

[12] = Panel of experienced tasters, cream cheese; type: in vivo, people; details: 150 ppm in cream cheese; panel of 8
Excerpt: 150 ppm of N-acetyl glutamic acid was thoroughly mixed into Philadelphia brand cream cheese. This product was tasted and compared with the original cream cheese by a panel of experienced tasters consisting of 8 people (5 men, 3 women aged 35-54).

[13] = Panel of experienced tasters, cola; type: in vivo, people; details: 100 ppm in cola; panel of 8
Method: To a standard cola (Pepsi or Coke cola) was added 100 ppm of N-acetyl glutamic acid. This product was tasted and compared with the original colas by a panel of experienced tasters consisting of 8 people (5 men, 3 women aged 35-54).

[14] = Expert panel tasting in aqueous solution of 0.5% NaCl, 0.03% MSG and 0.002% ribonucleotides; type: in vivo; details: 50 ppm in 0.5% NaCl, panel of 5
Excerpt: Mixture A: An aqueous solution of 0.5% NaCl, 0.03% MSG and 0.002%
Ribonucleotides GMP:IMP, ratio 1:1)
Mixture B: The same as A plus50 ppm of N-hexanoyl-L-leucine
Mixture A: An aqueous solution of 0.5% NACl, 0.03% MSG and 0.002%
Ribonucleotides (1:1 GMP, IMP)
Mixture B: The same as A plus 50 ppm of N-pentanoyl-L-phenylalanine

[15] = Expert panel tasting in aqueous solution of 0.5% NaCl; type: in vivo, people; details: panel of 5
Excerpt: Mixture A: An aqueous solution of 0.5% NaCl Mixture B: The same as A plus 10 ppm N-formyl-DL-phenylalanine Mixture A: An aqueous solution of 0.5% NaCl Mixture B: The same as A plus 50 ppm of N-acetyl-L-isoleucine Mixture A: An aqueous solution of 0.5% NaCl Mixture B: The same as A plus 10 ppm N-acetyl-DL-valine

[16] = Expert panel tasting in aqueous solution of 0.5% NaCl and 0.03% MSG; type: in vivo, people; details: panel of 5
Excerpt: Mixture C: An aqueous solution of 0.5% NaCl and 0.03% MSG.
Mixture D: The same as C plus 10 ppm N-formyl-DL-phenylalanine.
Mixture C: An aquesous solution of 0.5% NaCL and 0.03% MSG
Mixture D: The same as C plus 50 ppm of N-acetyl-L-isoleucine
Mixture A: An aqueous solution of 0.5% NaCl and 0.03% of MSG.
Mixture B: The same as A plus 25 ppm N-formyl-L-lysine
Mixture C: An aqueous solution of 0.5% NaCl and 0.03% MSG (Mono sodium glutamate)
Mixture D: The same as C plus 75 ppm of N-acetlyl DL-valine

[17] = Expert tasters, beef bouillon tasted warm; type: in vivo; details: 40 ppb in beef bouillon
Excerpt: Mixture C: commercially available beef bouillon Mixture D: same as Mixture C plus 40 ppb N-acetyl-methionine The soups were tasted warm by a group of expert tasters.

[18] = Expert panel tasting in salt reduced soy sauce; type: in vivo; details: 0.04 ppm in salt reduced soy sauce
Excerpt: Mixture A: salt reduced Kikkoman soy sauce containing 9% salt Mixture B: same as Mixture A plus 0.04 ppm N-acetyl-methionine

[19] = Expert panel tasting in chicken broth; type: in vivo, people; details: 100 ppm in chicken broth; panel of 5
Excerpt: Mixture A: A chicken broth Mixture B: The same as A plus 100 ppm of N-acetyl-L-tyrosine

## O=CNCC(=O)O [N-formyl glycine]
[1]
  taste description of mixture B compared to mixture A, effect assigned to the compound: stronger initial salt spike, was more long-lasting, complex and more succulent
[1]; only 50-200 ppm N-formyl-glycine on top of mixture A
  taste description compared to pure mixture A: more salty, more complex, long lasting and succulent
[2]
  taste description of mixture B compared to mixture A, effect assigned to the compound: stronger initial bite, is more salty and more complex
[2]; only 50-200 ppm N-formyl glycine on top of mixture A
  taste description compared to pure mixture A: more bite, more complex note and saltiness

## CC(=O)N[C@@H](CCC(=O)O)C(=O)O [N-acetyl glutamic acid]
[3]
  taste description compared with the original product: more meaty, more succulent, more juicy, more fatty and more expanding in the mouth
[4]
  taste description compared with the original product: more fatty, more creamy, more mouthcoating and gave a better buttery aftertaste
[5]
  taste description compared with the original product: more salty, more creamy and more full
[1]
  taste description of mixture B compared to mixture A, effect assigned to the compound: more umami and more lingering savoury
[6]
  taste description compared with the chips without N-Ac-Glu: more salty, more creamy, gave more mouthwatering and had increased cheese intensity
[7]
  taste description compared with the original product: more balanced, less sour, fuller, salivating and more lingering
[8]
  taste description compared with the original product: slightly more sweet and masked some of the soy off-notes
[2]
  taste description of mixture B compared to mixture A, effect assigned to the compound: more lingering, and giving fullness, depth and aftertaste of dairy cheese products
[9]
  taste description compared with the original product: less sour, more intense vanilla, more creamy, lingering and had more body
[10]
  taste description compared with the original product: slightly more bitter, had reduced metallic retort notes and had increased carmellic notes
[11]
  taste description compared with the original product: less sour, had more body, was more salivating and had a stronger cooked taste
[12]
  taste description compared with the original product: saltier, creamier, more umami, more body, lingering and mouth-coating
[13]
  taste description compared with the original product: slightly less acidic, more syrupy and more smooth

## CC(=O)N[C@@H](CCC(=O)O)C(=O)O [N-acetyl-L-glutamic acid]
[1]; only 50 -300 ppm N-acetyl-L-glutamic acid on top of mixture A
  taste description compared to mixture A: more umami and more lingering savoury

## CCCCC(=O)N[C@@H](Cc1ccccc1)C(=O)O [N-pentanoyl-L-phenylalanine]
[14]
  taste description of mixture B compared to mixture A: more salty and umami

## CC[C@H](C)[C@H](NC(C)=O)C(=O)O [N-acetyl-L-isoleucine]
[15]; 50 ppm in 0.5% NaCl
  taste description of mixture B compared to mixture A: more salty
[16]; 50 ppm in 0.5% NaCl and 0.03% MSG
  taste description of mixture D compared to mixture C: more umami

## CSCCC(NC(C)=O)C(=O)O (stereo not shown) [N-acetyl-methionine, N-acetyl-methionine (2-acetamido-4-(methylthio)butanoic acid)]
[17]
  taste description of mixture D compared to mixture C: more salty, longer lasting and lifts the garlic component
[18]
  taste description of mixture B compared to mixture A: more salty and has more upfront salty taste

## CCCCCC(=O)N[C@@H](CC(C)C)C(=O)O [N-hexanoyl-L-leucine]
[14]
  taste description of mixture B compared to mixture A: more salty and umami

## CC(=O)N[C@@H](Cc1ccc(O)cc1)C(=O)O [N-acetyl-L-tyrosine]
[19]
  taste description of mixture B compared to mixture A: more salty, lingering umami and shows delayed numbing

## O=CNC(Cc1ccccc1)C(=O)O (racemic) [N-formyl-DL-phenylalanine]
[15]; 10 ppm in 0.5% NaCl
  taste description of mixture B compared to mixture A: more salty
[16]; 10 ppm in 0.5% NaCl and 0.03% MSG
  taste description of mixture D compared to mixture C: more umami

## CC(=O)NC(C(=O)O)C(C)C (racemic) [N-acetyl-DL-valine]
[15]; 10 ppm in 0.5% NaCl
  taste description of mixture B compared to mixture A: more initially salty
[16]; 75 ppm in 0.5% NaCl and 0.03% MSG
  taste description of mixture D compared to mixture C: more lingering umami and salivating

## NCCCCC(NC=O)C(=O)O [N-formyl-L-lysine, alpha-N-formyl-L-lysine]
[16]; 25 ppm in 0.5% NaCl and 0.03% MSG
  taste description of mixture B compared to mixture A: more umami

## CC(=O)NC(CCC(=O)O)C(=O)O (racemic) [N-acetyl-DL-glutamic acid]
[2]; only 150-300 ppm N-acetyl-DL-glutamic acid on top of mixture A
  taste description compared to mixture A: more fullness, depth and aftertaste of cheese
